What follows are compounds tested on HL-60 (leukemia) cells (assay: MTT cytotoxicity assay, HL-60). Conditions: Homo sapiens, 48 h treatment, read-out: Anticancer activity IC50 HL-60.
Format: cell-based
Procedure: (§1) Compounds proposed in present invention were evaluated for their cytotoxic effect against panel of 5 cancer cell line viz. Panc-1 (pancreatic cancer), MCF-7 (breast cancer), PC-3 (prostate), HL-60 (leukemia) and A-375 (melanoma) using MTT assay. In each well of a 96-well plate, 3×10^3 cells were grown in 100 μL of medium. After 24 h, each test molecules were added to achieve a final concentration of 10 to 0.01 μmol/L, respectively. After 48 h of treatment, 20 μL of 2.5 mg/mL MTT (Organics Research, Inc.) solution in phosphate buffer saline was added to each well. […], supernatant was removed and formazan crystals were dissolved in 200 μL of DMSO. Absorbance was then measured at 570 nm using an absorbance plate reader (Bio-Rad Microplate Reader). Data are expressed as the percentage of viable cells in treated relative to non-treated conditions. Each experiment was repeated thrice and data was expressed as mean±SD of three independent experiments (Mordant, P. et al., Mol. Cancer Ther. 2010, 9, 358).

First: N#CCc1ccc(Nc2ncnc3ccc(-c4ccc5c(c4)OCO5)cc23)cc1 [Compound 21, 6-(benzo[d][1,3]dioxol-5-yl)-4-(4-cyanomethyl)phenylamino-quinazoline]
Second: N#CCc1ccc(Nc2ncnc3ccc(-c4ccc5[nH]ccc5c4)cc23)cc1 [Compound 26, 6-(1H-indol-5-yl)-4-(4-cyanomethyl)phenylamino-quinazoline]
The IC50 of the first is 1.5-fold higher: 27 µM for the first, 18 µM for the second. The second is the more potent here.

Going from `N#CCc1ccc(Nc2ncnc3ccc(-c4ccncc4)cc23)cc1` [Compound 28, 6-(pyridin-4-yl)-4-(4-cyanomethyl)phenylamino-quinazoline] to `N#CCc1ccc(Nc2ncnc3ccc(-c4cncc5ccccc45)cc23)cc1` [Compound 29, 6-(isoquinolin-4-yl)-4-(4-cyanomethyl)phenylamino-quinazoline], the IC50 falls from 32 µM to 10 µM (3.2-fold).

Each compound was assayed on A-375 (melanoma) cells (assay: MTT cytotoxicity assay, A375). Conditions: Homo sapiens, 48 h treatment, read-out: Anticancer activity IC50 A375.
Format: cell-based
Procedure: as §1

`N#CCc1ccc(Nc2ncnc3ccc(-c4ccc5c(c4)OCO5)cc23)cc1` [Compound 21, 6-(benzo[d][1,3]dioxol-5-yl)-4-(4-cyanomethyl)phenylamino-quinazoline] and `N#CCc1ccc(Nc2ncnc3ccc(-c4ccc5[nH]ccc5c4)cc23)cc1` [Compound 26, 6-(1H-indol-5-yl)-4-(4-cyanomethyl)phenylamino-quinazoline] are within 1.5-fold of each other in IC50: 24 µM for the first, 31 µM for the second.

Compared with `N#CCc1ccc(Nc2ncnc3ccc(-c4ccncc4)cc23)cc1` [Compound 28, 6-(pyridin-4-yl)-4-(4-cyanomethyl)phenylamino-quinazoline], `N#CCc1ccc(Nc2ncnc3ccc(-c4cncc5ccccc45)cc23)cc1` [Compound 29, 6-(isoquinolin-4-yl)-4-(4-cyanomethyl)phenylamino-quinazoline] is 2.9-fold lower in IC50: 35 µM for the first, 12 µM for the second.

Each compound was assayed on MCF-7 (breast cancer) cells (assay: MTT cytotoxicity assay, MCF-7). Conditions: Homo sapiens, MCF7, 48 h treatment, read-out: Anticancer activity IC50 MCF-7.
Format: cell-based
Procedure: as §1

Compared with `N#CCc1ccc(Nc2ncnc3ccc(-c4ccc5c(c4)OCO5)cc23)cc1` [Compound 21, 6-(benzo[d][1,3]dioxol-5-yl)-4-(4-cyanomethyl)phenylamino-quinazoline], `N#CCc1ccc(Nc2ncnc3ccc(-c4ccc5[nH]ccc5c4)cc23)cc1` [Compound 26, 6-(1H-indol-5-yl)-4-(4-cyanomethyl)phenylamino-quinazoline] is 4.9-fold lower in IC50: 34 µM for the first, 7 µM for the second.

Compared with `N#CCc1ccc(Nc2ncnc3ccc(-c4ccncc4)cc23)cc1` [Compound 28, 6-(pyridin-4-yl)-4-(4-cyanomethyl)phenylamino-quinazoline], `N#CCc1ccc(Nc2ncnc3ccc(-c4cncc5ccccc45)cc23)cc1` [Compound 29, 6-(isoquinolin-4-yl)-4-(4-cyanomethyl)phenylamino-quinazoline] is 2.7-fold lower in IC50: 32 µM for the first, 12 µM for the second. The second is the more potent here.

Each compound was assayed on Panc-1 (pancreatic cancer) cells (assay: MTT cytotoxicity assay, Panc-1). Conditions: Homo sapiens, 48 h treatment, read-out: Anticancer activity IC50 Panc-1.
Format: cell-based
Procedure: as §1

Compared with `N#CCc1ccc(Nc2ncnc3ccc(-c4ccc5c(c4)OCO5)cc23)cc1` [Compound 21, 6-(benzo[d][1,3]dioxol-5-yl)-4-(4-cyanomethyl)phenylamino-quinazoline], `N#CCc1ccc(Nc2ncnc3ccc(-c4ccc5[nH]ccc5c4)cc23)cc1` [Compound 26, 6-(1H-indol-5-yl)-4-(4-cyanomethyl)phenylamino-quinazoline] is 2.1-fold lower in IC50: 33 µM for the first, 16 µM for the second.

Compared with `N#CCc1ccc(Nc2ncnc3ccc(-c4ccncc4)cc23)cc1` [Compound 28, 6-(pyridin-4-yl)-4-(4-cyanomethyl)phenylamino-quinazoline], `N#CCc1ccc(Nc2ncnc3ccc(-c4cncc5ccccc45)cc23)cc1` [Compound 29, 6-(isoquinolin-4-yl)-4-(4-cyanomethyl)phenylamino-quinazoline] is 4.3-fold lower in IC50: 39 µM for the first, 9 µM for the second.

Each compound was assayed on PC-3 (prostate cancer) cells (assay: MTT cytotoxicity assay, PC-3). Conditions: Homo sapiens, 48 h treatment, read-out: Anticancer activity IC50 PC-3.
Format: cell-based
Procedure: as §1

Going from `N#CCc1ccc(Nc2ncnc3ccc(-c4ccc5c(c4)OCO5)cc23)cc1` [Compound 21, 6-(benzo[d][1,3]dioxol-5-yl)-4-(4-cyanomethyl)phenylamino-quinazoline] to `N#CCc1ccc(Nc2ncnc3ccc(-c4ccc5[nH]ccc5c4)cc23)cc1` [Compound 26, 6-(1H-indol-5-yl)-4-(4-cyanomethyl)phenylamino-quinazoline], the IC50 rises from 7 µM to 24 µM (3.4-fold). The first is the more potent here.

Going from `N#CCc1ccc(Nc2ncnc3ccc(-c4ccncc4)cc23)cc1` [Compound 28, 6-(pyridin-4-yl)-4-(4-cyanomethyl)phenylamino-quinazoline] to `N#CCc1ccc(Nc2ncnc3ccc(-c4cncc5ccccc45)cc23)cc1` [Compound 29, 6-(isoquinolin-4-yl)-4-(4-cyanomethyl)phenylamino-quinazoline], the IC50 falls from 76 µM to 9 µM (8.4-fold). The second is the more potent here.

These compounds were tested against PI3K-α (Homo sapiens, UniProt P42336) (assay: PI3K-α assay (ADP-Glo)). Conditions: 0.5 μM, preliminary screening.
Sequence of PI3K-α (P42336 whole entry): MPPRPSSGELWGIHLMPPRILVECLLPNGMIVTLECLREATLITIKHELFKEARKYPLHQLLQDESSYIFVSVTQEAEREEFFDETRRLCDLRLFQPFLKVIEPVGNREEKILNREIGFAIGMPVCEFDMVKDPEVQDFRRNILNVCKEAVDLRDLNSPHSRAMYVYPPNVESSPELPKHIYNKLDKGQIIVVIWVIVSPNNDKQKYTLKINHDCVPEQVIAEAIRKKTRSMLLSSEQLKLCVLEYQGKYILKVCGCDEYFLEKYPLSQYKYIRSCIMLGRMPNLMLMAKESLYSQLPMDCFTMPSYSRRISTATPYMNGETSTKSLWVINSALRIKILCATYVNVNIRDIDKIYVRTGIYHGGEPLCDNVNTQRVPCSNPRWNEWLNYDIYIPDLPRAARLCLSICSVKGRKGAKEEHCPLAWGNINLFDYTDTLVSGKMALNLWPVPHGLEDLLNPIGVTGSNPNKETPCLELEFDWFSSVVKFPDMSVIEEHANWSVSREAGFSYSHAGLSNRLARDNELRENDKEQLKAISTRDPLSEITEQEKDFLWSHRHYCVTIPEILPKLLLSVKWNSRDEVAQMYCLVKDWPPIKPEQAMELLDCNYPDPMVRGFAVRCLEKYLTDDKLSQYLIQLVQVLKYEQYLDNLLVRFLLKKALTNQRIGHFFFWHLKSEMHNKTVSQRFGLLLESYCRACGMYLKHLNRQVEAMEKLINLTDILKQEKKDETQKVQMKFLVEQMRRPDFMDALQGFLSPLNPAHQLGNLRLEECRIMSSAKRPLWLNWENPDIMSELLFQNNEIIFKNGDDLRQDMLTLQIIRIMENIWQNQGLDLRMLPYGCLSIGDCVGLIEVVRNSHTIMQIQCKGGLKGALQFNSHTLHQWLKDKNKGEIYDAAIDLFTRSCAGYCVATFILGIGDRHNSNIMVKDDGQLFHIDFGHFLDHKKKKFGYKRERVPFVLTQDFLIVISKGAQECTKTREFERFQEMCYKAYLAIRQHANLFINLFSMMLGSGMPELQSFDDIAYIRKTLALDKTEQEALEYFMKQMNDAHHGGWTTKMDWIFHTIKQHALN
Sequence of PI3K-α (P27986 whole entry partner): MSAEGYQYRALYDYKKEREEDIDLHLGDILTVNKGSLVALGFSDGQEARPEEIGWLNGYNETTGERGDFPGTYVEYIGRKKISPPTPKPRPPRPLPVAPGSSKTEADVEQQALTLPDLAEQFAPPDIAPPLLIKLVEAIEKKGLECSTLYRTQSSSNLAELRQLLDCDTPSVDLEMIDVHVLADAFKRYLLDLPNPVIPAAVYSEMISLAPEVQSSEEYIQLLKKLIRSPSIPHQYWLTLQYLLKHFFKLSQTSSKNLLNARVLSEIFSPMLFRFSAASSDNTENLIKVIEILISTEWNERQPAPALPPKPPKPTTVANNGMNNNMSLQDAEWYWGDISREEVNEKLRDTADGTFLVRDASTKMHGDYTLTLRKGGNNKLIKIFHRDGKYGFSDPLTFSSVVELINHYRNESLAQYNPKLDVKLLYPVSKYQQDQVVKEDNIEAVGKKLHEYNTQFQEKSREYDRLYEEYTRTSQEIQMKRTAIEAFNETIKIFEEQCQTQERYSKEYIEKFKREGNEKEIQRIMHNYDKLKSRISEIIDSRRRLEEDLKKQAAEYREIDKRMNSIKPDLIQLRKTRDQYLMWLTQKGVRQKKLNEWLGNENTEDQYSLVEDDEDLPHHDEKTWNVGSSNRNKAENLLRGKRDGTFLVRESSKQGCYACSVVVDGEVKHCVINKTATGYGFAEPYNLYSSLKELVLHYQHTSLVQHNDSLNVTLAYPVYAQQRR
Format: biochemical
Procedure: The enzyme is assayed for 80 min after which 20 ul of ADP-Glo reagent is added. After a further incubation of 40 min, 40 ul of Kinase Detection Buffer is added. The assays are incubated for 40 min and then read on PerkinElmer Envision for 1 sec/well.

Compared with `N#CCc1ccc(Nc2ncnc3ccc(-c4ccc5c(c4)OCO5)cc23)cc1` [Compound 21, 6-(benzo[d][1,3]dioxol-5-yl)-4-(4-cyanomethyl)phenylamino-quinazoline], `N#CCc1ccc(Nc2ncnc3ccc(-c4ccc5[nH]ccc5c4)cc23)cc1` [Compound 26, 6-(1H-indol-5-yl)-4-(4-cyanomethyl)phenylamino-quinazoline] is lower in “% Inhibition of PI3K-α at 0.5 μM” value: 48.6% for the first, 47.5% for the second.

First: N#CCc1ccc(Nc2ncnc3ccc(-c4ccncc4)cc23)cc1 [Compound 28, 6-(pyridin-4-yl)-4-(4-cyanomethyl)phenylamino-quinazoline]
Second: N#CCc1ccc(Nc2ncnc3ccc(-c4cncc5ccccc45)cc23)cc1 [Compound 29, 6-(isoquinolin-4-yl)-4-(4-cyanomethyl)phenylamino-quinazoline]
The “% Inhibition of PI3K-α at 0.5 μM” value of the first is lower: 45.6% for the first, 48.8% for the second.

`N#CCc1ccc(Nc2ncnc3ccc(-c4ccc5c(c4)OCO5)cc23)cc1` [Compound 21, 6-(benzo[d][1,3]dioxol-5-yl)-4-(4-cyanomethyl)phenylamino-quinazoline] and `N#CCc1ccc(Nc2ncnc3ccc(-c4ccc5[nH]ccc5c4)cc23)cc1` [Compound 26, 6-(1H-indol-5-yl)-4-(4-cyanomethyl)phenylamino-quinazoline] cannot be ordered by inhibition at 0.5 µM: over 40% for the first, over 40% for the second.

`N#CCc1ccc(Nc2ncnc3ccc(-c4ccncc4)cc23)cc1` [Compound 28, 6-(pyridin-4-yl)-4-(4-cyanomethyl)phenylamino-quinazoline] and `N#CCc1ccc(Nc2ncnc3ccc(-c4cncc5ccccc45)cc23)cc1` [Compound 29, 6-(isoquinolin-4-yl)-4-(4-cyanomethyl)phenylamino-quinazoline] cannot be ordered by inhibition at 0.5 µM: over 40% for the first, over 40% for the second.

Same assay, conditions: read-out: PI3K inhibition IC50 -α

Going from `N#CCc1ccc(Nc2ncnc3ccc(-c4ccc5c(c4)OCO5)cc23)cc1` [Compound 21, 6-(benzo[d][1,3]dioxol-5-yl)-4-(4-cyanomethyl)phenylamino-quinazoline] to `N#CCc1ccc(Nc2ncnc3ccc(-c4ccc5[nH]ccc5c4)cc23)cc1` [Compound 26, 6-(1H-indol-5-yl)-4-(4-cyanomethyl)phenylamino-quinazoline], the IC50 falls from 0.321 µM to 0.201 µM (1.6-fold).

First: N#CCc1ccc(Nc2ncnc3ccc(-c4ccncc4)cc23)cc1 [Compound 28, 6-(pyridin-4-yl)-4-(4-cyanomethyl)phenylamino-quinazoline]
Second: N#CCc1ccc(Nc2ncnc3ccc(-c4cncc5ccccc45)cc23)cc1 [Compound 29, 6-(isoquinolin-4-yl)-4-(4-cyanomethyl)phenylamino-quinazoline]
The IC50 of the first is 4.7-fold higher: 0.704 µM for the first, 0.15 µM for the second. The second is the more potent here.

What follows are compounds tested against PI3K-β (Homo sapiens, UniProt P42338) (assay: PI3K-β assay (ADP-Glo)). Conditions: read-out: PI3K inhibition IC50 -β.
Sequence of PI3K-β (P42338 whole entry, species assumed): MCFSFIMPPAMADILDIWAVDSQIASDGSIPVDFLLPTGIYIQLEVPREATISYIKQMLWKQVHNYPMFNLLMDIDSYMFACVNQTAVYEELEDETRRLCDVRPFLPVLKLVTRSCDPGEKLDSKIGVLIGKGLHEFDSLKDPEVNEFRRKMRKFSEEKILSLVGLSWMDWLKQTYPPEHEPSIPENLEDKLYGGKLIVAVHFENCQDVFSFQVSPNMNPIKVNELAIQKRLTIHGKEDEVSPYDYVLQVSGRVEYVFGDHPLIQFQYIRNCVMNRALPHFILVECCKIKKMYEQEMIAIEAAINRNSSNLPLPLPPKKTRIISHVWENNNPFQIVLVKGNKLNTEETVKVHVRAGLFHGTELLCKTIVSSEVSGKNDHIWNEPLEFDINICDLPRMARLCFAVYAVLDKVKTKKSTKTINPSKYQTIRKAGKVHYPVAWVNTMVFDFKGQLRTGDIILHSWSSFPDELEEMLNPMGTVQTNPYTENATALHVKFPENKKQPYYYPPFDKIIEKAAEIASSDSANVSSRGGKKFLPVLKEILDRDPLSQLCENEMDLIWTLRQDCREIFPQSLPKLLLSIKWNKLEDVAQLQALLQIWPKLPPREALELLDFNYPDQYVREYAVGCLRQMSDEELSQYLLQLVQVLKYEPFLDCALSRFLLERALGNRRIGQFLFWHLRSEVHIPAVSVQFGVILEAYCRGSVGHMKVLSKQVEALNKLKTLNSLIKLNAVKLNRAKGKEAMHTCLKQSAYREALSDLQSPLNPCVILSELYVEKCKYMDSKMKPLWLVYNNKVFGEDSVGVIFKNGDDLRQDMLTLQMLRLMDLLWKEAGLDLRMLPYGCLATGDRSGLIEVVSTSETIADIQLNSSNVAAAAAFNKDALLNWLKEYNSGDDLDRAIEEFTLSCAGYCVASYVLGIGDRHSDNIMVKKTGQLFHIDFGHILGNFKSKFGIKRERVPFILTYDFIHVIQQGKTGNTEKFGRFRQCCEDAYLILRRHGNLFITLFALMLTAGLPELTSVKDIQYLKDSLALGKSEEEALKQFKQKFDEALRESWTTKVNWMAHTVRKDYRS
Sequence of PI3K-β (P27986 whole entry partner, species assumed): as the sequence (P27986 whole entry partner) above
Format: biochemical
Procedure: The enzyme is assayed for 60 min after which 20 ul of ADP-Glo reagent is added. After a further incubation of 40 min, 40 ul of kinase detection Buffer is added. The assays are incubated for 40 min and then read on PerkinElmer Envision for 1 sec/well.

`N#CCc1ccc(Nc2ncnc3ccc(-c4ccc5c(c4)OCO5)cc23)cc1` [Compound 21, 6-(benzo[d][1,3]dioxol-5-yl)-4-(4-cyanomethyl)phenylamino-quinazoline] and `N#CCc1ccc(Nc2ncnc3ccc(-c4ccc5[nH]ccc5c4)cc23)cc1` [Compound 26, 6-(1H-indol-5-yl)-4-(4-cyanomethyl)phenylamino-quinazoline] cannot be ordered by IC50: over 10 µM for the first, over 10 µM for the second.

`N#CCc1ccc(Nc2ncnc3ccc(-c4ccncc4)cc23)cc1` [Compound 28, 6-(pyridin-4-yl)-4-(4-cyanomethyl)phenylamino-quinazoline] and `N#CCc1ccc(Nc2ncnc3ccc(-c4cncc5ccccc45)cc23)cc1` [Compound 29, 6-(isoquinolin-4-yl)-4-(4-cyanomethyl)phenylamino-quinazoline] cannot be ordered by IC50: over 10 µM for the first, over 20 µM for the second.

Same assay, conditions: up to 20 μM

For `N#CCc1ccc(Nc2ncnc3ccc(-c4cncc5ccccc45)cc23)cc1` [Compound 29, 6-(isoquinolin-4-yl)-4-(4-cyanomethyl)phenylamino-quinazoline], the “% inhibition of PI3K-β” value was 0%.

Same assay, conditions: α versus β isoform

With `N#CCc1ccc(Nc2ncnc3ccc(-c4ccc5c(c4)OCO5)cc23)cc1` [Compound 21, 6-(benzo[d][1,3]dioxol-5-yl)-4-(4-cyanomethyl)phenylamino-quinazoline] the “Fold-selectivity for PI3K-α with respect to -β” value (shortened to “Fold-selectivity for PI3K-α … -β”) was over 31.1 fold.
In the case of `N#CCc1ccc(Nc2ncnc3ccc(-c4ccc5[nH]ccc5c4)cc23)cc1` [Compound 26, 6-(1H-indol-5-yl)-4-(4-cyanomethyl)phenylamino-quinazoline], the “Fold-selectivity for PI3K-α … -β” value is reported as over 49.7 fold.
`N#CCc1ccc(Nc2ncnc3ccc(-c4ccncc4)cc23)cc1` [Compound 28, 6-(pyridin-4-yl)-4-(4-cyanomethyl)phenylamino-quinazoline] was tested, and the “Fold-selectivity for PI3K-α … -β” value was over 14.2 fold.
With `N#CCc1ccc(Nc2ncnc3ccc(-c4cncc5ccccc45)cc23)cc1` [Compound 29, 6-(isoquinolin-4-yl)-4-(4-cyanomethyl)phenylamino-quinazoline] the “Fold-selectivity for PI3K-α … -β” value was over 133 fold.

These compounds were tested against PI3K-γ (Homo sapiens, UniProt P48736) (assay: PI3K-γ assay (ADP-Glo)). Conditions: read-out: PI3K inhibition IC50 -γ.
Sequence of PI3K-γ (P48736 whole entry, species assumed): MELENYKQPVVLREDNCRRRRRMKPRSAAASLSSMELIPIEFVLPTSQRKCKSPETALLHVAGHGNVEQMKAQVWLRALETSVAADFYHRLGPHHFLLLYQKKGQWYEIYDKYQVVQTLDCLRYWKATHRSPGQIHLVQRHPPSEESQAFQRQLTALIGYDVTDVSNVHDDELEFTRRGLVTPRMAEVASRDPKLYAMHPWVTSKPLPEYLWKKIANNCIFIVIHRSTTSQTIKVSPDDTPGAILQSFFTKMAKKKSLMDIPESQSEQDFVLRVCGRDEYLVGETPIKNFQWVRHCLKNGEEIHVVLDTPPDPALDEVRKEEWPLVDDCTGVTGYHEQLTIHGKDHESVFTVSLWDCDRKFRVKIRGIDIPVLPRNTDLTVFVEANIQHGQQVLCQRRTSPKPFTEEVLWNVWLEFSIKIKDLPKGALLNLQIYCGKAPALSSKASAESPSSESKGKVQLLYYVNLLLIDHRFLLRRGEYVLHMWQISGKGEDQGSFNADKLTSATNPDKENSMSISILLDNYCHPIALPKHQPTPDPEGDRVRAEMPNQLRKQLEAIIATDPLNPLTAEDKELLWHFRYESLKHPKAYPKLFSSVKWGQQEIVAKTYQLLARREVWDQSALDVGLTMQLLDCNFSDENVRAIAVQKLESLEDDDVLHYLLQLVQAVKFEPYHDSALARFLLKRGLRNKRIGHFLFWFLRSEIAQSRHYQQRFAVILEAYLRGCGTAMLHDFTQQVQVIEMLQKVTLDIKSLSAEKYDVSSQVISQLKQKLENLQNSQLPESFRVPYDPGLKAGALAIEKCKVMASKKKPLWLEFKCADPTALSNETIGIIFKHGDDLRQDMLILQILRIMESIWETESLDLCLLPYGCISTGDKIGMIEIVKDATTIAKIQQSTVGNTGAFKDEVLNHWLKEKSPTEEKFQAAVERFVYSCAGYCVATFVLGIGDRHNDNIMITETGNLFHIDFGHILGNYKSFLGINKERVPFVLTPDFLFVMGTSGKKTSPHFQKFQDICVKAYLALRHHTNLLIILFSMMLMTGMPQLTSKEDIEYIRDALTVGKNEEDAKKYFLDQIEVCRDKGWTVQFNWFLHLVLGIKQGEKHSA
Format: biochemical
Procedure: The enzyme is assayed for 75 min after which 20 ul of ADP-Glo reagent is added. After a further incubation of 40 min, 40 ul of Kinase Detection Buffer is added. The assays are incubated for 40 min and then read on PerkinElmer Envision for 1 sec/well.

First: N#CCc1ccc(Nc2ncnc3ccc(-c4ccc5c(c4)OCO5)cc23)cc1 [Compound 21, 6-(benzo[d][1,3]dioxol-5-yl)-4-(4-cyanomethyl)phenylamino-quinazoline]
Second: N#CCc1ccc(Nc2ncnc3ccc(-c4ccc5[nH]ccc5c4)cc23)cc1 [Compound 26, 6-(1H-indol-5-yl)-4-(4-cyanomethyl)phenylamino-quinazoline]
The IC50 of the first is 3.9-fold lower: 0.19 µM for the first, 0.75 µM for the second.

Going from `N#CCc1ccc(Nc2ncnc3ccc(-c4ccncc4)cc23)cc1` [Compound 28, 6-(pyridin-4-yl)-4-(4-cyanomethyl)phenylamino-quinazoline] to `N#CCc1ccc(Nc2ncnc3ccc(-c4cncc5ccccc45)cc23)cc1` [Compound 29, 6-(isoquinolin-4-yl)-4-(4-cyanomethyl)phenylamino-quinazoline], the IC50 rises from 0.36 µM to 8.44 µM (23-fold). The first is the more potent here.

Same assay, conditions: α versus γ isoform

First: N#CCc1ccc(Nc2ncnc3ccc(-c4ccc5c(c4)OCO5)cc23)cc1 [Compound 21, 6-(benzo[d][1,3]dioxol-5-yl)-4-(4-cyanomethyl)phenylamino-quinazoline]
Second: N#CCc1ccc(Nc2ncnc3ccc(-c4ccc5[nH]ccc5c4)cc23)cc1 [Compound 26, 6-(1H-indol-5-yl)-4-(4-cyanomethyl)phenylamino-quinazoline]
The “Fold-selectivity for PI3K-α with respect to -γ” value of the first is lower: 0.6 fold for the first, 3.7 fold for the second.

Going from `N#CCc1ccc(Nc2ncnc3ccc(-c4ccncc4)cc23)cc1` [Compound 28, 6-(pyridin-4-yl)-4-(4-cyanomethyl)phenylamino-quinazoline] to `N#CCc1ccc(Nc2ncnc3ccc(-c4cncc5ccccc45)cc23)cc1` [Compound 29, 6-(isoquinolin-4-yl)-4-(4-cyanomethyl)phenylamino-quinazoline], the “Fold-selectivity for PI3K-α with respect to -γ” value rises from 0.5 fold to 56 fold.

Each compound was assayed against PI3K-δ (Homo sapiens, UniProt O00329) (assay: PI3K-δ assay (ADP-Glo)). Conditions: read-out: PI3K inhibition IC50 -δ.
Sequence of PI3K-δ (O00329 whole entry, species assumed): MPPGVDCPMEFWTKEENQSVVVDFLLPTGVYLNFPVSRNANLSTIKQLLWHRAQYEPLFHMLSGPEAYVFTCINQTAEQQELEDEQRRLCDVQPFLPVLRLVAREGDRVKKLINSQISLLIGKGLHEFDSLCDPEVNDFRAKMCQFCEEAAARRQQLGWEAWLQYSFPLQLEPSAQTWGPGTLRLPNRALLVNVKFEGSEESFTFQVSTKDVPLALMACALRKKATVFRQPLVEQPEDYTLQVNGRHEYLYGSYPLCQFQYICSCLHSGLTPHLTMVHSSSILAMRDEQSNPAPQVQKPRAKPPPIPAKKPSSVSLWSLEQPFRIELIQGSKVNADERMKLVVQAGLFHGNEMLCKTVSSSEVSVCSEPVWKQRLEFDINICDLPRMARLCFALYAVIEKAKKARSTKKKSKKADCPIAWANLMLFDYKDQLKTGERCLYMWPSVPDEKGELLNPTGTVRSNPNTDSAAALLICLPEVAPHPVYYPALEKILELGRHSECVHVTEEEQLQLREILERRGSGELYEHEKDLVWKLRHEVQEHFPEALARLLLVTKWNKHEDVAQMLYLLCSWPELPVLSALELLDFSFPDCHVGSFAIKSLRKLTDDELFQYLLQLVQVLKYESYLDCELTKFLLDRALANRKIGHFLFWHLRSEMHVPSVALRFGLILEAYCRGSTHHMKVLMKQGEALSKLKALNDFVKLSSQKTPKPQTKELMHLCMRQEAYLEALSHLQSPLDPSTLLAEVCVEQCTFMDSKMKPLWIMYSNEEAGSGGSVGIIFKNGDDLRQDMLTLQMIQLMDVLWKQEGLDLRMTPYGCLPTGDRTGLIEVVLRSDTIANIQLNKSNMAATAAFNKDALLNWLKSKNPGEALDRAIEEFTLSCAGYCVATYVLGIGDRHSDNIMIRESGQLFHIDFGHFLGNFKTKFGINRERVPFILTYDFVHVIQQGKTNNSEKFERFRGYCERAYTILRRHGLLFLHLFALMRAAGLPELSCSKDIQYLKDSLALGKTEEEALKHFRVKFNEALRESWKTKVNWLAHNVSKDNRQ
Sequence of PI3K-δ (P27986 whole entry partner, species assumed): as the sequence (P27986 whole entry partner) above
Format: biochemical
Procedure: Compounds proposed in present invention were evaluated for their inhibitory activity on phosphoinositide-3-kinase-alpha and other isoforms (beta, gamma and delta). […] The protocols used for these bioassays are as follows:
The enzyme is assayed for 120 min after which 20 ul of ADP-Glo reagent is added. After a further incubation of 40 min, 40 ul of Kinase Detection Buffer is added. The assays are incubated for 40 min and then read on PerkinElmer Envision for 1 sec/well.

`N#CCc1ccc(Nc2ncnc3ccc(-c4ccc5c(c4)OCO5)cc23)cc1` [Compound 21, 6-(benzo[d][1,3]dioxol-5-yl)-4-(4-cyanomethyl)phenylamino-quinazoline] and `N#CCc1ccc(Nc2ncnc3ccc(-c4ccc5[nH]ccc5c4)cc23)cc1` [Compound 26, 6-(1H-indol-5-yl)-4-(4-cyanomethyl)phenylamino-quinazoline] cannot be ordered by IC50: over 10 µM for the first, over 10 µM for the second.

Going from `N#CCc1ccc(Nc2ncnc3ccc(-c4ccncc4)cc23)cc1` [Compound 28, 6-(pyridin-4-yl)-4-(4-cyanomethyl)phenylamino-quinazoline] to `N#CCc1ccc(Nc2ncnc3ccc(-c4cncc5ccccc45)cc23)cc1` [Compound 29, 6-(isoquinolin-4-yl)-4-(4-cyanomethyl)phenylamino-quinazoline], the IC50 falls from over 10 µM to 0.88 µM.

Same assay, conditions: α versus δ isoform

In the case of `N#CCc1ccc(Nc2ncnc3ccc(-c4ccc5c(c4)OCO5)cc23)cc1` [Compound 21, 6-(benzo[d][1,3]dioxol-5-yl)-4-(4-cyanomethyl)phenylamino-quinazoline], the “Fold-selectivity for PI3K-α with respect to -δ” value (shortened to “Fold-selectivity for PI3K-α … -δ”) is reported as over 31.1 fold.
`N#CCc1ccc(Nc2ncnc3ccc(-c4ccc5[nH]ccc5c4)cc23)cc1` [Compound 26, 6-(1H-indol-5-yl)-4-(4-cyanomethyl)phenylamino-quinazoline] was tested, and the “Fold-selectivity for PI3K-α … -δ” value was over 49.7 fold.
For `N#CCc1ccc(Nc2ncnc3ccc(-c4ccncc4)cc23)cc1` [Compound 28, 6-(pyridin-4-yl)-4-(4-cyanomethyl)phenylamino-quinazoline], the “Fold-selectivity for PI3K-α … -δ” value was over 14.2 fold.

In the case of `N#CCc1ccc(Nc2ncnc3ccc(-c4cncc5ccccc45)cc23)cc1` [Compound 29, 6-(isoquinolin-4-yl)-4-(4-cyanomethyl)phenylamino-quinazoline], the “Fold-selectivity for PI3K-α … -δ” value is reported as 5.9 fold.
